# Results: ChEMBL document CHEMBL3046587, “Baseline sensitivity of Monilinia laxa from Greece to fenhexamid and analysis of fenhexamid-resistant mutants” (Crop Prot, 2013)
# What was measured:
# Format in all cases: functional, organism-based
# Monilinia laxa [1] = assay: Fungitoxicity against highly fenhexamid resistant Monilinia laxa MF-2 assessed as reduction in mycelial growth measured at 25 degC after 4 days; details: MF-2, 96 h
# Monilinia laxa [2] = assay: Fungitoxicity against moderately fenhexamid resistant Monilinia laxa MF-6 assessed as reduction in mycelial growth measured at 25 degC after 4 days; details: MF-6, 96 h
# Monilinia laxa [3] = assay: Fungitoxicity against moderately fenhexamid resistant Monilinia laxa MF-4 assessed as reduction in mycelial growth measured at 25 degC after 4 days; details: MF-4, 96 h
# Monilinia laxa [4] = assay: Fungitoxicity against highly fenhexamid resistant Monilinia laxa MF-5 assessed as reduction in mycelial growth measured at 25 degC after 4 days; details: MF-5, 96 h
# Monilinia laxa [5] = assay: Fungitoxicity against wild type Monilinia laxa K2 assessed as reduction in mycelial growth measured at 25 degC after 4 days; details: K2, 96 h
# Monilinia laxa [6] = assay: Fungitoxicity against moderately fenhexamid resistant Monilinia laxa MF-22 assessed as reduction in mycelial growth measured at 25 degC after 4 days; details: MF-22, 96 h
# Monilinia laxa [7] = assay: Fungitoxicity against highly fenhexamid resistant Monilinia laxa MF-3 assessed as reduction in mycelial growth measured at 25 degC after 4 days; details: MF-3, 96 h
# Monilinia laxa [8] = assay: Fungitoxicity against moderately fenhexamid resistant Monilinia laxa MF-1 assessed as reduction in mycelial growth measured at 25 degC after 4 days; details: MF-1, 96 h
# Monilinia laxa [9] = assay: Fungitoxicity against moderately fenhexamid resistant Monilinia laxa MF-7 assessed as reduction in mycelial growth measured at 25 degC after 4 days; details: MF-7, 96 h
# Monilinia laxa [10] = assay: Fungitoxicity against moderately fenhexamid resistant Monilinia laxa MF-8 assessed as reduction in mycelial growth measured at 25 degC after 4 days; details: MF-8, 96 h
Compound,EC50 (Monilinia laxa [1]) [µg/mL],EC50 (Monilinia laxa [2]) [µg/mL],EC50 (Monilinia laxa [3]) [µg/mL],EC50 (Monilinia laxa [4]) [µg/mL],EC50 (Monilinia laxa [5]) [µg/mL],EC50 (Monilinia laxa [6]) [µg/mL],EC50 (Monilinia laxa [7]) [µg/mL],EC50 (Monilinia laxa [8]) [µg/mL],EC50 (Monilinia laxa [9]) [µg/mL],EC50 (Monilinia laxa [10]) [µg/mL]
CC(C)NC(=O)N1CC(=O)N(c2cc(Cl)cc(Cl)c2)C1=O [IPRODIONE],0.24,0.32,0.19,0.25,0.25,0.21,0.25,0.26,0.23,0.35
CCCCCCCCCCCCCN1CC(C)OC(C)C1 (centres undefined) [TRIDEMORPH],0.07,0.6,0.12,0.08,0.1,0.1,0.11,0.4,0.09,0.4
COC(=O)Nc1nc2ccccc2[nH]1 [CARBENDAZIM],–,0.2,0.2,0.5,–,–,–,–,0.3,–
C[Si](Cn1cncn1)(c1ccc(F)cc1)c1ccc(F)cc1 [FLUSILAZOLE],0.1,0.3,0.1,0.1,0.1,0.4,0.1,0.2,0.2,0.2
COC(=O)N(OC)c1ccccc1COc1ccn(-c2ccc(Cl)cc2)n1 [PYRACLOSTROBIN],0.5,0.1,0.3,0.4,0.3,0.2,0.4,0.2,0.4,0.4
